According to patent US9539236B2, “Pharmaceutical composition for preventing or treating cancer” (Medicinal Bioconvergence Research Center, priority 2013, dated 2017):

Experiments:
Assay type in all cases: cell-based
[1] = tested on: lung cancer cell line NCI-H460; assay: MTT assay, cytotoxicity on lung cancer cells (H460); settings: NCI-H460, serum free RPMI, 0.04 uM, 0.4 uM, 4 uM and 40 uM, 48 hours, FIG. 3
Method: A lung cancer cell line NCI-H460 was cultured in an RPMI medium (HyQ RPMI-1640, Hyclone) containing 10% fetal bovine serum and 1% penicillin/streptomycin for 48 hours, and then transferred to a 96-well plate. After 12 hours, the medium was exchanged with the serum free RPMI medium, and then was treated with the compound of chemical formula 1 with 0.04 uM, 0.4 uM, 4 uM, and 40 uM. After 48 hours, MTT assay was conducted.

AIMP2-DX2 = molecular target: T1, AIMP2-DX2 (Homo sapiens, UniProt Q13155); assay: Western blotting of AIMP2-DX2 protein level in H460 cells; settings: FIG. 2
T1 construct: the protein was extracted from the cells using a RIPA buffer containing protease; endogenous in cells; host or cells: H460
T1 sequence (Q13155 1-251 isoform Q13155-2): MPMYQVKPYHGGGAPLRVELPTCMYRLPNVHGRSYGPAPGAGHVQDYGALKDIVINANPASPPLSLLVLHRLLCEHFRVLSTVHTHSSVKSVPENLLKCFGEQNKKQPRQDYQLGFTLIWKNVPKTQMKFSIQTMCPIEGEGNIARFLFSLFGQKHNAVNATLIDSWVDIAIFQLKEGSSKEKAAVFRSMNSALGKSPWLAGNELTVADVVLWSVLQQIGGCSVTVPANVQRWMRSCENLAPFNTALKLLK
Method: (§1) The present inventors conducted western blotting and RT-PCR using AIMP2 antibody and AIMP2-DX2 antibody (purchased from Neomics (Korea)) to verify the effect of the compound of chemical formula 1 on AIMP2-DX2 activity.
(§2) A western blotting test was conducted to investigate the effect of C11 on the AIMP2-DX2 protein level.
(§3) H460 cells were treated with the compound, C11, for a predetermined period of time, and the protein was extracted from the cells using a RIPA buffer containing protease. The protein was isolated using 10 to 12% SDS-PAGE, and then immunoblotting was conducted using an ECL system as a specific antibody.

AIMP2-DX2 mRNA = assay: RT-PCR of AIMP2-DX2 mRNA level in H460 cells treated with C11; settings: different concentrations of C11, RT-PCR, FIG. 1
Method: as §1
H460 cells were treated with C11 with different concentrations, and then total-RNA was isolated according to the protocol of the manufacturer (Qiagen). The cells were collected, and mixed with 350 μl of a lysis buffer, which was then homogenized using a homogenizer or a syringe. After 350 μl of 70% ethanol was added, the lysate was shook above and below several times, and loaded on the column, followed by centrifuge at 13,000 RPM for 15 seconds. The column was washed twice with a washing buffer, and then RNA was eluted with 40 μl of RNase-free DW.
For reverse transcription, 1 μg of the isolated RNA was used as AIMP2-specific primers (SEQ ID NO: 2 and SEQ ID NO: 3) and DX2-specific primers (SEQ ID NO: 4 and SEQ ID NO: 5). After the reverse transcription, the product was diluted with 3-fold DW, and then 1 μl was used for 30 μl of PCR reaction including 0.5 μl dNTP (each 2.5 mM), 0.5 μl of the AIMP2 specific primer set (SEQ ID NO: 2 and SEQ ID NO: 3) and DX2 specific primers (SEQ ID NO: 4 and SEQ ID NO: 5) (each 10 pM), 1.5 μl of DMSO, and 0.1 μl of Taq polymerase (5 U/μl).

AIMP2 = assay: Western blotting of AIMP2 protein expression in H460 cells; settings: FIG. 2
Method: as §1, §2, §3

[2] = tested on: WI-26 human diploid fibroblast cell line from embryonic lung tissue; assay: MTT assay, cytotoxicity on normal cell line WI-26; settings: WI-26 cells, compared with a control, FIG. 4
Method: In order to evaluate cytotoxicity of C11 on a normal cell line, WI-26, which is a human diploid fibroblast cell line from embryonic lung tissue, was treated with C11, and then cell viability was measured by MTT assay and compared with a control.

For `Cc1ccc(S(=O)(=O)N[C@@H](CC(C)C)C(=O)N2CCOCCOCCOCC2)cc1` [C11, 1,4,7-Trioxa-10-azacyclododecane, 10-[4-methyl-2-[[(4-methylphenyl)sulfonyl]amino]-1-oxopentyl]], the “lung cancer cell line viability (MTT)” value [1] was “killed by the compound, C11, in a concentration dependent manner”, the “effect on the AIMP2-DX2 protein level” value (AIMP2-DX2) was “reduced the AIMP2-DX2 protein level in a concentration dependent manner” and the “effect on the mRNA level of AIMP2-DX2” value (AIMP2-DX2 mRNA) was “no effect”. The “effect on the AIMP2 protein expression” value (AIMP2) was “no effect” and the “cytotoxicity on normal cells (cell viability, MTT)” value [2] was “cytotoxicity was not observed”.
